The values below come from PubChem BioAssay AID248 (DTP/NCI, 2004).

In the test the test system is L1210 leukemia ip in BDF1 mice, survival T/C. The test can be described thus: NCI In Vivo Anticancer Drug Screen. Data for tumor model L1210 Leukemia (intraperitoneal) in B6D2F1 (BDF1) mice. As to conditions: endpoint: mean survival time, higher = longer survival. Summed up:
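Ratio derived from survival: compound-dosed mice over vehicle-dosed mice, all bearing a transplantable tumor.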

[1] abbreviates: dose: 100.0 mg/kg/injection, schedule: Q04DX003 (ip), vehicle: Klucel (hydroxypropylcellulose) (HPC).
Setting [2] is: dose: 200.0 mg/kg/injection, schedule: Q04DX003 (ip), vehicle: Klucel (hydroxypropylcellulose) (HPC).
Where [3] appears, read: dose: 400.0 mg/kg/injection, schedule: Q04DX003 (ip), vehicle: Klucel (hydroxypropylcellulose) (HPC).
[4] abbreviates: dose: 50.0 mg/kg/injection, schedule: Q01DX009 (ip), vehicle: Klucel (hydroxypropylcellulose) (HPC).
Setting [5] is: dose: 100.0 mg/kg/injection, schedule: Q01DX009 (ip), vehicle: Klucel (hydroxypropylcellulose) (HPC).
[6] abbreviates: dose: 200.0 mg/kg/injection, schedule: Q01DX009 (ip), vehicle: Klucel (hydroxypropylcellulose) (HPC).
The mark [7] stands for this setting: dose: 100.0 mg/kg/injection, schedule: Q04DX002 (ip), vehicle: Klucel (hydroxypropylcellulose) (HPC).
The mark [8] stands for this setting: dose: 200.0 mg/kg/injection, schedule: Q04DX002 (ip), vehicle: Klucel (hydroxypropylcellulose) (HPC).
The mark [9] stands for this setting: dose: 400.0 mg/kg/injection, schedule: Q04DX002 (ip), vehicle: Klucel (hydroxypropylcellulose) (HPC).
[10] abbreviates: dose: 100.0 mg/kg/injection, schedule: Q01DX009 (ip), vehicle: saline with Tween-80.
[11] abbreviates: dose: 200.0 mg/kg/injection, schedule: Q01DX009 (ip), vehicle: saline with Tween-80.
[12] abbreviates: dose: 400.0 mg/kg/injection, schedule: Q01DX009 (ip), vehicle: saline with Tween-80.
The mark [13] stands for this setting: dose: 100.0 mg/kg/injection, schedule: Q04DX003 (ip), vehicle: saline.
[14] abbreviates: dose: 200.0 mg/kg/injection, schedule: Q04DX003 (ip), vehicle: saline.
The mark [15] stands for this setting: dose: 400.0 mg/kg/injection, schedule: Q01DX009 (ip), vehicle: Klucel (hydroxypropylcellulose) (HPC).
The mark [16] stands for this setting: dose: 100.0 mg/kg/injection, schedule: Q01DX001 (ip), vehicle: saline.
Where [17] appears, read: dose: 25.0 mg/kg/injection, schedule: Q01DX009 (ip), vehicle: saline.
The mark [18] stands for this setting: dose: 50.0 mg/kg/injection, schedule: Q01DX009 (ip), vehicle: saline.
[19] abbreviates: dose: 50.0 mg/kg/injection, schedule: Q04DX003 (ip), vehicle: saline.
The mark [20] stands for this setting: dose: 100.0 mg/kg/injection, schedule: Q01DX009 (ip), vehicle: saline.

Structures are written as SMILES. Several values for one entry are separate records, joined by “and”; a condition that tells them apart may be missing. Equal entries are not always repeated. Inconclusive results and toxic doses are left out.

Consider `CC(=O)Nc1ccc(N=Nc2ccccc2)cc1C`, for which the T/C is, setting by setting: (dose: 50.0 mg/kg/injection, schedule: Q04DX003 (ip), vehicle: Klucel (hydroxypropylcellulose) (HPC)) 100 % of control; under setting [1], 96 % of control; under setting [2], 96 % of control.

As to `Cc1ccc(S(=O)(=O)N(C)c2ccccc2C(=O)O)cc1`, the T/C by setting is: under setting [1], 104 % of control; under setting [2], 97 % of control; under setting [3], 95 % of control.

As for `NC(Cc1cnc(N=Nc2ccc(S(N)(=O)=O)cc2)[nH]1)C(=O)O` (stereo not drawn), the T/C was 100 % of control under setting [4], 93 % of control under setting [5] and 93 % of control under setting [6].

In the case of `Cc1ccc(S(=O)(=O)/N=S(\CCCl)CCc2ccccc2)cc1` (stereo not drawn), the T/C runs as follows: under setting [1], 97 % of control; under setting [2], 97 % of control; under setting [3], 90 % of control.

In the case of `CC(C)(C)NC(=O)NCc1ccc(Cl)cc1`, the T/C was 100 % of control under setting [7], 88 % of control under setting [8] and 111 % of control under setting [9].

As to `CCCCOC(=O)C1OC1c1ccccc1` (stereo not drawn), the T/C runs as follows: under setting [10], 88 % of control; (dose: 100.0 mg/kg/injection, schedule: Q04DX002 (ip), vehicle: saline with Tween-80) 90 % of control; under setting [11], 95 % of control; (dose: 200.0 mg/kg/injection, schedule: Q04DX002 (ip), vehicle: saline with Tween-80) 88 % of control; under setting [12], 95 % of control; (dose: 400.0 mg/kg/injection, schedule: Q04DX002 (ip), vehicle: saline with Tween-80) 102 % of control.

Take `NC(=NCCCC(NCc1ccccc1)C(=O)O)N[N+](=O)[O-]` (stereo not drawn): the T/C is, setting by setting: (dose: 75.0 mg/kg/injection, schedule: Q01DX009 (ip), vehicle: other) 107 % of control; under setting [13], 100 % of control; (dose: 150.0 mg/kg/injection, schedule: Q01DX009 (ip), vehicle: other) 111 % of control; under setting [14], 102 % of control; (dose: 300.0 mg/kg/injection, schedule: Q01DX009 (ip), vehicle: other) 107 % of control; (dose: 400.0 mg/kg/injection, schedule: Q04DX003 (ip), vehicle: saline) 104 % of control. Moreover, under “dose: 600.0 mg/kg/injection, schedule: Q01DX009 (ip), vehicle: other”, the T/C was 105 % of control.

Turning to `COc1cc(Cc2c3cc4c(cc3cc[n+]2C)OCO4)c(Oc2cc(Cc3c4cc5c(cc4cc[n+]3C)OCO5)ccc2OC)cc1OC`, the T/C reads like this: (dose: 3.12 mg/kg/injection, schedule: Q04DX003 (ip), vehicle: saline with Tween-80) 97 % of control; (dose: 6.25 mg/kg/injection, schedule: Q04DX003 (ip), vehicle: saline with Tween-80) 95 % of control; (dose: 12.5 mg/kg/injection, schedule: Q04DX003 (ip), vehicle: saline with Tween-80) 95 % of control.

Take `CC1CC=C(N2CCOCC2)CC1` (stereo not drawn): the T/C is 98 % of control under setting [5], 97 % of control under setting [6] and 103 % of control under setting [15].

As to `O=[N+]([O-])c1ccc(OCCOc2ccc([N+](=O)[O-])cc2)cc1`, the T/C under setting [16] was 103 % of control; the T/C (dose: 200.0 mg/kg/injection, schedule: Q01DX001 (ip), vehicle: saline) is 107 % of control; the T/C (dose: 400.0 mg/kg/injection, schedule: Q01DX001 (ip), vehicle: saline) is 97 % of control.

For the compound `C/C(=N\Sc1cccc([N+](=O)[O-])c1)c1ccccc1O`, the T/C reads like this: under setting [7], 105 % of control; under setting [8], 94 % of control; under setting [9], 94 % of control.

As to `O=S1CCOCC1.O=S1CCOCC1.O=S1CCOCC1.O=S1CCOCC1.O=S1CCOCC1.O=S1CCOCC1.[Hg+2].[O-][Cl+3]([O-])([O-])O`, the T/C runs as follows: (dose: 3.0 mg/kg/injection, schedule: Q01DX009 (ip), vehicle: Klucel (hydroxypropylcellulose) (HPC)) 93 % of control; (dose: 6.0 mg/kg/injection, schedule: Q01DX009 (ip), vehicle: Klucel (hydroxypropylcellulose) (HPC)) 92 % of control; (dose: 12.5 mg/kg/injection, schedule: Q01DX009 (ip), vehicle: Klucel (hydroxypropylcellulose) (HPC)) 98 % of control.

Regarding `CC1NCCOC1c1ccccc1` (stereo not drawn), the T/C is, setting by setting: (dose: 12.5 mg/kg/injection, schedule: Q01DX009 (ip), vehicle: saline) 93 % of control; under setting [17], 108 % of control and 92 % of control; (dose: 25.0 mg/kg/injection, schedule: Q04DX003 (ip), vehicle: saline) 114 % of control; under setting [18], 100 % of control and 108 % of control; under setting [19], 103 % of control; under setting [20], 106 % of control. In addition, the T/C by setting is: under setting [13], 100 % of control; under setting [14], 88 % of control.

In the case of `CCN(CC)C(=O)CS(=O)(=O)c1ccc(N)cc1`, the T/C reads like this: (dose: 100.0 mg/kg/injection, schedule: Q04DX003 (ip), vehicle: saline with Tween-80) 102 % of control; (dose: 200.0 mg/kg/injection, schedule: Q04DX003 (ip), vehicle: saline with Tween-80) 97 % of control; (dose: 400.0 mg/kg/injection, schedule: Q04DX003 (ip), vehicle: saline with Tween-80) 100 % of control.

Turning to `Nn1c(-c2ccccc2)c[n+]2ccccc12`, the T/C is 101 % of control (dose: 75.0 mg/kg/injection, schedule: Q01DX001 (ip), vehicle: other); 97 % of control (dose: 150.0 mg/kg/injection, schedule: Q01DX001 (ip), vehicle: other); 92 % of control (dose: 300.0 mg/kg/injection, schedule: Q01DX001 (ip), vehicle: other).

As to `CCOC(=O)c1ccc(NC(=O)Oc2cc(=O)oc3ccccc23)cc1`, the T/C runs as follows: under setting [5], 97 % of control; under setting [6], 95 % of control; under setting [15], 96 % of control.

On to `O=S(=O)(O)C(O)c1cccc2ccccc12` (stereo not drawn), for which the T/C was 105 % of control under setting [10], 105 % of control under setting [11] and 115 % of control under setting [12].

Take `Cc1cc([NH-])c([NH-])cc1C.[Cl][Pt+2][Cl]`: the T/C was 150 % of control (dose: 18.0 mg/kg/injection, schedule: Q01DX009 (ip), vehicle: water); 119 % of control (dose: 25.0 mg/kg/injection, schedule: Q01DX009 (ip), vehicle: other); 104 % of control (dose: 50.0 mg/kg/injection, schedule: Q04DX003 (ip), vehicle: other); 112 % of control and 119 % of control under setting [19]; 119 % of control (dose: 100.0 mg/kg/injection, schedule: Q04DX003 (ip), vehicle: other); 107 % of control and 113 % of control under setting [13]. Also, the T/C under setting [14] is 93 % of control.

Regarding `Cc1ccc(N(N)c2ccc(C)cc2)cc1`, the T/C was 98 % of control under setting [5]; 100 % of control under setting [1]; 98 % of control under setting [6]; 97 % of control under setting [2]; 100 % of control under setting [3].

`C=CCC#N`: the T/C under setting [17] is 95 % of control, the T/C under setting [18] was 101 % of control and the T/C under setting [20] was 97 % of control.

For `NC(=O)C1C(=O)c2cccc3c2C1(Br)C(Br)CCC3` (stereo not drawn), the T/C under setting [16] is 93 % of control.

Turning to `Nc1nc2c(nnn2C2OC(COP(=O)(O)O)C(O)C2O)c(=O)[nH]1` (stereo not drawn), the T/C (dose: 2.5 mg/kg/injection, schedule: Q01DX Z (ip), vehicle: other) is 89 % of control; the T/C (dose: 5.0 mg/kg/injection, schedule: Q01DX Z (ip), vehicle: other) is 97 % of control; the T/C (dose: 10.0 mg/kg/injection, schedule: Q01DX Z (ip), vehicle: other) was 102 % of control; the T/C (dose: 20.0 mg/kg/injection, schedule: Q01DX Z (ip), vehicle: other) is 118 % of control; the T/C (dose: 30.0 mg/kg/injection, schedule: Q01DX Z (ip), vehicle: other) was 120 % of control; the T/C (dose: 50.0 mg/kg/injection, schedule: Q01DX Z (ip), vehicle: other) is 118 % of control.

As for `NCCN1Cc2ccccc2CCc2ccccc2C1`, the T/C was 111 % of control (dose: 25.0 mg/kg/injection, schedule: Q01DX009 (ip), vehicle: Klucel (hydroxypropylcellulose) (HPC)); 105 % of control under setting [4]; 93 % of control under setting [5].
